Assay results published in patent US8772500B2, “TRPV3 modulators” (AbbVie Inc., priority 2011, dated 2014).

Assays:
[1] = In vitro human microsomal stability assay; type: in vitro ADME
In short: (§1)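 Incubations ran at 37 °C in NADPH-supplemented rat (Sprague-Dawley) or human hepatic microsomes.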

human TRPV3 = biological target: T1, human TRPV3 (Homo sapiens, UniProt Q8NET8); assay: In vitro antagonism of recombinant human TRPV3 activation (FLIPR Tetra calcium assay, 2-APB as agonist); type: cell-based; settings: HEK293 cells stably expressing human TRPV3; 2-APB 80 μM; range class; read-out: IC50 (reported range)
T1 construct: expressed in transfected cells
T1 sequence (Q8NET8 1-790): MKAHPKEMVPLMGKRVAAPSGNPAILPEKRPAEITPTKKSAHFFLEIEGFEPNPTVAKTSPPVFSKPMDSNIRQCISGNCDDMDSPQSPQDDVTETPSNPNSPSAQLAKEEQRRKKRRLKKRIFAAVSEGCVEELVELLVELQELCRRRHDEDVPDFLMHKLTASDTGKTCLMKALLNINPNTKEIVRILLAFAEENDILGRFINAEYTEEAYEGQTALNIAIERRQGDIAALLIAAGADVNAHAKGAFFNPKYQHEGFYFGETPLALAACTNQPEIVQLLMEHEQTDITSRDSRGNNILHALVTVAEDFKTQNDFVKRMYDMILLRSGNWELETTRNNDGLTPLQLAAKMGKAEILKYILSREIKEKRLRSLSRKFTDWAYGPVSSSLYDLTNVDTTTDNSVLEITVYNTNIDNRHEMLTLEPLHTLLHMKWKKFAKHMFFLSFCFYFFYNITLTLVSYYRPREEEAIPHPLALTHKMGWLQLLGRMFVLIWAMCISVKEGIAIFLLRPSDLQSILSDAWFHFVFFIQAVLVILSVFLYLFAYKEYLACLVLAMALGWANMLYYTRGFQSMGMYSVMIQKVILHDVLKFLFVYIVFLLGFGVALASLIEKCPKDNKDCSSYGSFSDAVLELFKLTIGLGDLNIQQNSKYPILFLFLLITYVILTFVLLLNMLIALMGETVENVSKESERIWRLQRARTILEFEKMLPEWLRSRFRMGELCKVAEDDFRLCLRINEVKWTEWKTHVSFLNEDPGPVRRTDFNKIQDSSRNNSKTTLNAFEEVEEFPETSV
In short: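 HEK293 cells stably expressing human TRPV3, loaded with Calcium-4 dye for 90-120 min; compound added 3 min before 2-APB at 80 μM (its EC80). Fluorescence (max minus min) over 10 min expressed as % of maximal 2-APB response without antagonist; IC50 mostly averaged from n≧2 runs.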

[2] = In vitro rat microsomal stability assay; type: in vitro ADME, rat (Sprague-Dawley)
In short: as §1

[3] = Sprague-Dawley, rat, 0.5 h, 0.5 μM, pH 7.4
[4] = 0.5 μM substrate, 0.25 mg/mL microsomal protein, pH 7.4, 37° C., NADPH, 30 minutes

Compound	HUMAN MICROSOMAL STABILITY (% REMAINING AFTER 30 MINUTES) ([1]; human, 0.5 h, 0.5 μM, pH 7.4) [%]	IC50 (human TRPV3) [nM]	RAT MICROSOMAL STABILITY (% REMAINING AFTER 30 MINUTES) [2, 3] [%]	HUMAN MICROSOMAL STABILITY (% REMAINING AFTER 30 MINUTES) [1, 4] [%]	RAT MICROSOMAL STABILITY (% REMAINING AFTER 30 MINUTES) [2, 4] [%]
OC(c1ccccn1)C1(c2ccc(OC(F)(F)F)cc2)CCCO1 (stereo not drawn) [Example 95, (syn)-pyridin-2-yl{2-[4-(trifluoromethoxy)phenyl]tetrahydrofuran-2-yl}-methanol]	57	1100 to 5000	0.61	–	–
OC(c1ccccn1)C1(c2ccccc2OC(F)(F)F)CCCO1 (stereo not drawn) [Example 96, (anti)-pyridin-2-yl{2-[2-(trifluoromethoxy)phenyl]tetrahydrofuran-2-yl}-methanol]	0.68	1100 to 5000	0.15	–	–
OC(c1ccccn1)C1(c2ccccc2OC(F)(F)F)CCCO1 (stereo not drawn) [Example 97, (syn)-pyridin-2-yl{2-[2-(trifluoromethoxy)phenyl]tetrahydrofuran-2-yl}-methanol]	6.4	50 to 500	0.16	–	–
OC(c1ccccn1)C1(c2ccc(Cl)c(Cl)c2)CCCO1 (stereo not drawn) [Example 98]	7.6	50 to 500	0.020	–	–
OC(c1ccccn1)C1(c2ccc(Cl)c(Cl)c2)CCCO1 (stereo not drawn) [Example 99, (syn)-[2-(3,4-dichlorophenyl)tetrahydrofuran-2-yl](pyridin-2-yl)methanol]	30	1100 to 5000	0.17	–	–
OC(c1ccccn1)C1(c2cccc(F)c2)CCCO1 (stereo not drawn) [Example 100, (anti)-[2-(3-fluorophenyl)tetrahydrofuran-2-yl](pyridin-2-yl)methanol]	26	501 to 1000	2.9	–	–
OC(c1ccccn1)C1(c2ccccc2F)CCCO1 (stereo not drawn) [Example 103, (syn)-[2-(2-fluorophenyl)tetrahydrofuran-2-yl](pyridin-2-yl)methanol]	73	1100 to 5000	0.012	–	–
OC(c1ccccn1)C1(c2cccc(Cl)c2)CCCO1 (stereo not drawn) [Example 104, (anti)-[2-(3-chlorophenyl)tetrahydrofuran-2-yl](pyridin-2-yl)methanol]	15	50 to 500	0.42	–	–
OC(c1ccccn1)C1(c2cccc(Cl)c2)CCCO1 (stereo not drawn) [Example 105, (syn)-[2-(3-chlorophenyl)tetrahydrofuran-2-yl](pyridin-2-yl)methanol]	42	5100 to 20000	0.040	–	–
OC(c1ccccn1)C1(c2cccc(C(F)(F)F)c2)CCCO1 (stereo not drawn) [Example 106, (anti)-pyridin-2-yl{2-[3-(trifluoromethyl)phenyl]tetrahydrofuran-2-yl}-methanol]	3.9	50 to 500	1.6	–	–
OC(c1ccccn1)C1(c2cccc(C(F)(F)F)c2)CCCO1 (stereo not drawn) [Example 107, (syn)-pyridin-2-yl{2-[3-(trifluoromethyl)phenyl]tetrahydrofuran-2-yl}-methanol]	31	1100 to 5000	0.23	–	–
OC(c1ccccn1)C1(c2ccc(F)c(F)c2)CCCO1 (stereo not drawn) [Example 108, (anti)-[2-(3,4-difluorophenyl)tetrahydrofuran-2-yl](pyridin-2-yl)methanol]	13	501 to 1000	4.9	–	–
OC(c1ccccn1)C1(c2ccc(F)c(F)c2)CCCO1 (stereo not drawn) [Example 109, (syn)-[2-(3,4-difluorophenyl)tetrahydrofuran-2-yl](pyridin-2-yl)methanol]	45	5100 to 20000	0.74	–	–
Cl.O[C@H](c1ccccn1)C1(c2ccc(Cl)c(Cl)c2)CC(F)(F)C1 [Example 111, (S)-[1-(3,4-dichlorophenyl)-3,3-difluorocyclobutyl](pyridin-2-yl)methanol hydrochloride]	–	50 to 500	–	52	23
OC(c1ccccn1)C1(c2ccc(OC(F)(F)F)cc2)CC(F)(F)C1 (stereo not drawn) [Example 112, {3,3-difluoro-1-[4-(trifluoromethoxy)phenyl]cyclobutyl}(pyridin-2-yl)-methanol]	75	50 to 500	75	–	–
OC(c1ccccn1)C1(c2cccc(C(F)(F)F)c2)CC(F)(F)C1 (stereo not drawn) [Example 113, {3,3-difluoro-1-[3-(trifluoromethyl)phenyl]cyclobutyl}(pyridin-2-yl)-methanol]	24	50 to 500	18	–	–
OC(c1ccccn1)C1(c2cccc(OC(F)(F)F)c2)CC(F)(F)C1 (stereo not drawn) [Example 114, {3,3-difluoro-1-[3-(trifluoromethoxy)phenyl]cyclobutyl}(pyridin-2-yl)-methanol]	6.9	50 to 500	11	–	–
OC(c1ccccn1)C1(c2ccc(C(F)(F)F)cn2)CCC1 (stereo not drawn) [Example 115, pyridin-2-yl{1-[5-(trifluoromethyl)pyridin-2-yl]cyclobutyl}methanol]	>85	5100 to 20000	81	–	–
OC(c1ccccn1)C1(c2cc(C(F)(F)F)ccn2)CCC1 (stereo not drawn) [Example 116, pyridin-2-yl{1-[4-(trifluoromethyl)pyridin-2-yl]cyclobutyl}methanol]	37	501 to 1000	25	–	–
O=C1CC(c2ccc(Cl)c(Cl)c2)([C@H](O)c2ccccn2)C1 [Example 117, 3-(3,4-dichlorophenyl)-3-[(S)-hydroxy(pyridin-2-yl)methyl]cyclobutanone]	18	1100 to 5000	50	–	–
O[C@H](c1ccccn1)C1(c2cc(C(F)(F)F)ccn2)CCC1 [Example 123, (S)-pyridin-2-yl{1-[4-(trifluoromethyl)pyridin-2-yl]cyclobutyl}methanol]	21	50 to 500	11	–	–
O[C@@H](c1ccccn1)C1(c2cc(C(F)(F)F)ccn2)CC(F)(F)C1 [Example 125, (R)-{3,3-difluoro-1-[4-(trifluoromethyl)pyridin-2-yl]cyclobutyl}(pyridin-2-yl)methanol]	53	5100 to 20000	8.8	–	–
O[C@H](c1ccccn1)C1(c2cc(C(F)(F)F)ccn2)CC(F)(F)C1 [Example 126, (S)-{3,3-difluoro-1-[4-(trifluoromethyl)pyridin-2-yl]cyclobutyl}(pyridin-2-yl)methanol]	21	501 to 1000	7.7	–	–
Nc1cccnc1C(O)C1(c2ccc(C(F)(F)F)cc2)CCC1 (stereo not drawn) [Example 127, (3-aminopyridin-2-yl){1-[4-(trifluoromethyl)phenyl]cyclobutyl}methanol]	51	5100 to 20000	1.1	–	–
O[C@H](c1ccccn1)C1(c2ccc(OC(F)(F)F)cc2)CC(F)(F)C1 [Example 128, (S)-{3,3-difluoro-1-[4-(trifluoromethoxy)phenyl]cyclobutyl}(pyridin-2-yl)-methanol]	59	50 to 500	67	–	–
COC1(OC)CC(c2ccc(OC(F)(F)F)cc2)(C(O)c2ccccn2)C1 (stereo not drawn) [Example 129, {3,3-dimethoxy-1-[4-(trifluoromethoxy)phenyl]cyclobutyl}(pyridin-2-yl)-methanol]	46	50 to 500	0.01	–	–
